{"source": "patent US20170334941A1", "about": "“2',2'-DIHALO NUCLEOSIDE ANALOGS FOR TREATMENT OF THE FLAVIVIRIDAE FAMILY OF VIRUSES AND CANCER” (COCRYSTAL PHARMA, INC., priority 2014, published 2017)", "key": {"human PBM cells": {"test_system": "human PBM cells", "assay": "Cellular toxicity assay in human PBM cells", "assay_type": "cell-based", "settings": "Human PBM cells", "method": "(§1) The toxicity of the compounds was assessed in Vero, human PBM, CEM (human lymphoblastoid), MT-2, and HepG2 cells, as described previously (see Schinazi R. F., Sommadossi J.-P., Saalmann V., Cannon D. L., Xie M.-Y., Hart G. C., Smith G. A. & Hahn E. F. Antimicrob. Agents Chemother. 1990, 34, 1061-67). Cycloheximide was included as positive cytotoxic control, and untreated cells exposed to solvent were included as negative controls. The cytotoxicity IC50 was obtained from the concentration-response curve using the median effective method described previously (see Chou T.-C. & Talalay P. Adv. Enzyme Regul. 1984, 22, 27-55; Belen'kii M. S. & Schinazi R. F. Antiviral Res. 1994, 25, 1-11)."}, "Vero cells": {"test_system": "Vero cells", "assay": "Cellular toxicity assay in Vero cells", "assay_type": "cell-based", "method": "as §1"}, "[1]": {"test_system": "CEM (human lymphoblastoid) cells", "assay": "Cellular toxicity assay in CEM cells", "assay_type": "cell-based", "method": "as §1"}, "[2]": {"assay": "Cellular toxicity assay in human PBM cells", "assay_type": "cell-based", "settings": "read-out: Cytotoxicity, CC50", "method": "as §1"}, "[3]": {"assay": "Cellular toxicity assay in Vero cells", "assay_type": "cell-based", "settings": "African green monkey, read-out: Cytotoxicity, CC50", "method": "as §1"}, "[4]": {"assay": "Cellular toxicity assay in CEM cells", "assay_type": "cell-based, human", "settings": "human, read-out: Cytotoxicity, CC50", "method": "as §1"}, "[5]": {"test_system": "HCV GT 1b replicon (Huh-7 cells)", "assay": "HCV replicon assay", "assay_type": "cell-based", "settings": "Hepatitis C virus, GT1B", "method": "(§2) The HCV replicon assay was carried out as described in Stuyver L et al., Ribonucleoside analogue that blocks replication or bovine viral diarrhea and hepatitis C viruses in culture. Antimicrob. Agents Chemother. 2003, 47, 244-254. Huh 7 Clone B cells containing HCV Replicon RNA were seeded in a 96-well plate at 5000 cells/well, and the compounds tested at 10 μM in triplicate immediately after seeding. Following five days incubation (37° C., 5% CO2), total cellular RNA was isolated by using versaGene RNA purification kit from Gentra. Replicon RNA and an internal control (TaqMan rRNA control reagents, Applied Biosystems) were amplified in a single step multiplex Real Time RT-PCR Assay. The antiviral effectiveness of the compounds was calculated by subtracting the threshold RT-PCR cycle of the test compound from the threshold RT-PCR cycle of the no-drug control (ΔCt HCV). A ACt of 3.3 equals a 1-log reduction (equal to 90% less starting material) in Replicon RNA levels. The cytotoxicity of the compounds was also calculated by using the ΔCt rRNA values. 2′-C-Me-C was used as the positive control. To determine EC90 and IC50 values (using methods described in Reed I J & Muench H, A simple method or estimating fifty percent endpoints. Am. J. Hyg. 27: 497, 1938), ΔCt: values were first converted into fraction of starting material (Applied Biosystems Handbook) and then were used to calculate the % inhibition."}, "[6]": {"assay": "Cytotoxicity in HCV replicon assay (ΔCt rRNA)", "assay_type": "cell-based", "settings": "human, Huh-7 Clone B cells containing HCV GT 1b replicon RNA, Huh-7 cells", "method": "as §2, with “To determine EC90 and IC50 values (using methods described in Reed I J & Muench H, A simple method or estimating fifty percent endpoints. Am. J. Hyg. 27: 497, 1938), ΔCt: values were first converted into fraction of starting material (Applied Biosystems Handbook) and then were used to calculate the % inhibition.” left out"}}, "note": "Read-outs that look alike come from different tables or passages of the source.", "data": [{"compound": "O=c1ccn(C2OC(CO)C(O)C2(Cl)Cl)c(=O)[nH]1", "note": "(centres unmarked) [Compound 17]", "values": [{"measurement": "% inhibition at maximum concentration evaluated", "setting": "human PBM cells", "result": "−11", "unit": "%"}, {"measurement": "CC50", "setting": "human PBM cells; read-out: Cytotoxicity, CC50", "result": "> 100", "unit": "µM"}, {"measurement": "% inhibition at maximum concentration evaluated", "setting": "Vero cells", "result": 1.4, "unit": "%"}, {"measurement": "CC50", "setting": "Vero cells; read-out: Cytotoxicity, CC50", "result": "> 100", "unit": "µM"}, {"measurement": "% inhibition at maximum concentration evaluated", "setting": "[1]", "result": "−1.9", "unit": "%"}, {"measurement": "CC50", "setting": "[1]; read-out: Cytotoxicity, CC50", "result": "> 100", "unit": "µM"}]}, {"compound": "CC(C)OC(=O)[C@H](C)NP(=O)(OC[C@H]1O[C@@H](n2ccc(=O)[nH]c2=O)C(Cl)(Cl)[C@@H]1O)Oc1ccccc1", "note": "(stereo partly drawn) [Compound 18, (2S)-isopropyl 2-(((((2R,3R,5R)-4,4-dichloro-5-(2,4-dioxo-3,4-dihydropyrimidin-1(2H)-yl)-3-hydroxytetrahydrofuran-2-yl)methoxy)(phenoxy)phosphoryl)amino)propanoate]", "values": [{"measurement": "CC50", "setting": "[2]; Human PBM cells", "result": "> 100", "unit": "µM"}, {"measurement": "% inhibition at maximum concentration evaluated", "setting": "human PBM cells", "result": 25, "unit": "%"}, {"measurement": "CC50", "setting": "[3]", "result": "> 100", "unit": "µM"}, {"measurement": "% inhibition at maximum concentration evaluated", "setting": "Vero cells", "result": 2.3, "unit": "%"}, {"measurement": "CC50", "setting": "[4]", "result": "> 100", "unit": "µM"}, {"measurement": "% inhibition at maximum concentration evaluated", "setting": "[1]", "result": 17, "unit": "%"}]}, {"compound": "Nc1ccn([C@@H]2O[C@H](CO)[C@@H](O)C2(Cl)Cl)c(=O)n1", "note": "[Compound 22, 4-amino-1-((2R,4R,5R)-3,3-dichloro-4-hydroxy-5-(hydroxymethyl)tetrahydrofuran-2-yl)pyrimidin-2(1H)-one]", "values": [{"measurement": "CC50", "setting": "[2]; human, human PBM cells", "result": "< 1", "unit": "µM"}, {"measurement": "% inhibition at maximum concentration evaluated", "setting": "human PBM cells", "result": 82, "unit": "%"}, {"measurement": "CC50", "setting": "[3]", "result": "< 1", "unit": "µM"}, {"measurement": "% inhibition at maximum concentration evaluated", "setting": "Vero cells", "result": 101, "unit": "%"}, {"measurement": "CC50", "setting": "[4]; CEM lymphoblastoid cells", "result": "< 1", "unit": "µM"}, {"measurement": "% inhibition at maximum concentration evaluated", "setting": "[1]", "result": 87, "unit": "%"}, {"measurement": "EC50", "setting": "[5]; HCV GT 1b replicon, Huh-7 cells, read-out: EC50", "result": "> 10", "unit": "µM"}, {"measurement": "EC90", "setting": "[5]; HCV GT 1b replicon, Huh-7 cells, read-out: EC90", "result": "> 10", "unit": "µM"}, {"measurement": "CC50 at 5 days", "setting": "[6]", "result": "> 10", "unit": "µM"}]}, {"compound": "CC(C)OC(=O)[C@H](C)NP(=O)(OC[C@H]1O[C@@H](n2ccc(N)nc2=O)C(Cl)(Cl)[C@@H]1O)Oc1ccccc1", "note": "(stereo partly drawn) [Compound 23, (2S)-isopropyl 2-(((((2R,3R,5R)-5-(4-amino-2-oxopyrimidin-1(2H)-yl)-4,4-dichloro-3-hydroxytetrahydrofuran-2-yl)methoxy)(phenoxy)phosphoryl)amino)propanoate]", "values": [{"measurement": "CC50", "setting": "[2]; Human PBM cells", "result": "< 1", "unit": "µM"}, {"measurement": "% inhibition at maximum concentration evaluated", "setting": "human PBM cells", "result": 91, "unit": "%"}, {"measurement": "CC50", "setting": "[3]", "result": "< 1", "unit": "µM"}, {"measurement": "% inhibition at maximum concentration evaluated", "setting": "Vero cells", "result": 101, "unit": "%"}, {"measurement": "% inhibition at maximum concentration evaluated", "setting": "[1]", "result": "(−86 @ 100) %"}, {"measurement": "EC50", "setting": "[5]; Huh-7", "result": "0.1 to 1", "unit": "µM"}, {"measurement": "EC90", "setting": "[5]; Huh-7", "result": "0.1 to 1", "unit": "µM"}, {"measurement": "CC50 at 5 days", "setting": "[6]", "result": "> 10", "unit": "µM"}]}]}
